Measurements reported in PubChem BioAssay (NCI).
Values joined by “and” are separate entries in the source; they are usually repeats but may differ in a detail not shown here. Equal entries are not always repeated.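 Compound exposure: 48 hours, 5 concentrations, 96-well plates. At the GI50, growth is halved. TGI is the concentration that stops growth completely.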

Tests used:
Assay in all cases: NCI tumour cell line growth inhibition, 48 h
[1] = test system: UACC-62 melanoma
[2] = test system: LOX IMVI melanoma
[3] = test system: RPMI-8226 leukemia
[4] = test system: NCI-H23 lung
[5] = test system: SR leukemia
[6] = test system: OVCAR-5 ovarian
[7] = test system: HT29 colon
[8] = test system: HOP-92 NSCLC
[9] = test system: MALME-3M melanoma
[10] = test system: HL-60(TB) leukemia

| SMILES | TGI [1] | TGI [2] | TGI [3] | TGI [4] | TGI [5] | TGI [6] | TGI [7] | TGI [8] | TGI [9] | TGI [10] | GI50 [1] | GI50 [2] | GI50 [3] | GI50 [4] | GI50 [5] | GI50 [6] | GI50 [7] | GI50 [8] | GI50 [9] | GI50 [10] |
| --- | --- | --- | --- | --- | --- | --- | --- | --- | --- | --- | --- | --- | --- | --- | --- | --- | --- | --- | --- | --- |
| CCOC(=O)C1Oc2ccc([N+](=O)[O-])cc2C1(C)O (stereo not drawn) | > 100 µM | > 100 µM | > 100 µM | > 100 µM | > 100 µM | > 100 µM | > 100 µM | > 100 µM | > 100 µM | > 100 µM |  |  |  |  |  |  |  |  |  |  |
| [O-][n+]1c2cc(CN3CCOCC3)c(CN3CCOCC3)cc2[n+]([O-])c2c(O)cccc21 | 12.9 µM | 16.3 µM | 12.2 µM | 8.88 µM | 0.701 µM | 15.2 µM | 9.18 µM | 10.4 µM | 25.3 µM | 10.9 µM |  |  |  |  |  |  |  |  |  |  |
| CN(C)c1ncnc2c1ccn2C1OC(CO)C(O)C1O (stereo not drawn) | > 100 µM | 12.2 µM | > 71.4 µM | > 100 µM | > 100 µM | > 100 µM | > 100 µM | 5.64 µM | > 100 µM | 1.89 µM | > 100 µM | 0.559 µM | 5.88 µM | 5.45 µM | 13.8 µM | 5.51 µM | 1.47 µM | 0.883 µM | 92.6 µM | 0.316 µM |
| COC(=O)Nc1nc2ccc(S(=O)(=O)c3ccc(NC(=O)Nc4cc(C(F)(F)F)ccc4F)cc3)cc2[nH]1 | > 25 µM | > 25 µM | > 25 µM | > 25 µM | > 25 µM | > 25 µM | > 25 µM | > 25 µM | > 25 µM | > 25 µM | > 25 µM | > 25 µM | > 25 µM | > 25 µM | > 25 µM | > 25 µM | > 25 µM | > 25 µM | > 25 µM | > 25 µM |
| Oc1ccc(O)c2c1C1(Cl)C(Cl)=C(Cl)C2(Cl)C1(Cl)Cl | 19.5 µM | 13.4 µM | 63.3 µM | 22.1 µM | 24.7 µM | 33.8 µM | 17.9 µM | 7.13 µM | 9.95 µM | 12.1 µM | 4.96 µM | 3.18 µM | 4.82 µM | 5.17 µM | 2.65 µM | 12.6 µM | 6.44 µM | 1.51 µM | 2.31 µM | 3.19 µM |
| Nc1cc(-c2ccccc2)n(C(=O)Nc2ccc(Oc3ccccc3)cc2)n1 | > 100 µM | > 100 µM | > 100 µM | > 100 µM | 43.5 µM | > 100 µM | > 100 µM | > 100 µM | > 100 µM | > 100 µM | > 100 µM | > 100 µM | 19.7 µM | > 100 µM | 22.2 µM | 96.3 µM | 19.1 µM | 24.2 µM | > 100 µM | 47.8 µM |
| O=C1NC(SCc2ccc(F)cc2)=N/C1=C/c1cccc(OCc2ccc(Cl)cc2)c1 | > 100 µM | > 100 µM | > 100 µM | > 100 µM | 76.2 µM | > 100 µM | > 100 µM | > 100 µM | > 100 µM | > 100 µM | > 100 µM | 6 µM | > 100 µM | 16.9 µM | 5.05 µM | > 100 µM | > 100 µM | 67.7 µM | 26.5 µM | > 100 µM |
| O=C(O)C1CC2CC(=O)C1C2 (stereo not drawn) | > 100 µM | > 100 µM | > 100 µM | > 100 µM | > 100 µM | > 100 µM | > 100 µM | > 100 µM | > 100 µM | > 100 µM |  |  |  |  |  |  |  |  |  |  |
| O=C1OC(OC/C(Br)=C(/Br)COC2OC(=O)C(Cl)=C2Cl)C(Cl)=C1Cl (stereo not drawn) | 29.1 µM | 8.36 µM | 5.19 µM | 22.5 µM | 5.46 µM | 33 µM | 28.4 µM | 29.2 µM | 21.2 µM | 4.33 µM |  |  |  |  | 1.6 µM |  |  |  |  |  |
| CCC(=O)c1c(C(F)(F)F)n([O-])c2ccccc2[n+]1=O | 4.64 µM | 3.38 µM | 3.69 µM | 4.37 µM | 10.3 µM | 13.1 µM | 11 µM | 6.08 µM | 6.16 µM | > 100 µM | 1.65 µM | 1.39 µM | 0.694 µM | 1.1 µM | 0.193 µM | 3.89 µM | 1.41 µM | 1.5 µM | 1.69 µM | 3.03 µM |
| CCN(CC)CCC(=O)O[C@H]1CC[C@H](CC(C)[C@H]2CC(=O)C(C)C=C(C)[C@H](OC(=O)CCN(CC)CC)C(OC)C(=O)[C@@H](C)CC(C)/C=C/C=C/C=C(C)C(OC)CC3CC[C@H](C)[C@](O)(O3)C(=O)C(=O)N3CCCCC3C(=O)O2)CC1OC (stereo partly drawn) | 1.99 µM | 1.94 µM and 1.65 µM | 5.24 µM and 2.95 µM | > 10 µM and 3.53 µM | 3.46 µM and 0.618 µM | 8.16 µM and 7.73 µM | 2.57 µM and 2.44 µM | 4.31 µM and 1.62 µM |  | 4.48 µM and 1.16 µM |  | 0.00795 µM | 0.00666 µM | 1.28 µM |  | 1.63 µM | 1.07 µM | 0.025 µM | 0.0579 µM | 1.83 µM and 0.345 µM |
| CCCCN(CCCC)CCC(O)c1cc2ccc(C(F)(F)F)cc2c2cc(C(F)(F)F)ccc12 (stereo not drawn) | 6.53 µM | 3.63 µM | 6.17 µM | 6.81 µM | 6.41 µM | 12.8 µM | 4.41 µM | 4.26 µM | 5.51 µM | 3.42 µM | 2.49 µM | 1.66 µM | 2.28 µM | 2.08 µM | 1.61 µM | 2.97 µM | 2 µM | 1.49 µM | 2.34 µM | 1.44 µM |
| O=C1NN=C(c2ccc([N+](=O)[O-])cc2)C1n1nc(-c2ccccc2)c2ccccc2c1=O (stereo not drawn) | > 100 µM | > 100 µM | > 70 µM | > 100 µM | > 100 µM | > 100 µM | > 100 µM | > 100 µM | > 100 µM | > 64.4 µM |  |  |  |  |  |  |  |  |  |  |
| Cc1c(C(N)=O)sc2c1c(=O)n(Cc1ccccc1)c1nnc(S(=O)(=O)CC(=O)Nc3ccc(Cl)cc3)n21 | 18.7 µM | 20.6 µM | > 100 µM | 9.71 µM | 30.3 µM | 52.1 µM | 26 µM | 6.63 µM | 17.5 µM | > 100 µM | 4.21 µM | 6.15 µM | 39.1 µM | 3.13 µM | 6.71 µM | 10.9 µM | 6.82 µM | 2.26 µM | 3.96 µM | 40.7 µM |
| CC1=NN(c2ccccc2)C(=O)C1N=Nc1ccc(S(N)(=O)=O)cc1 (stereo not drawn) | > 100 µM | > 100 µM | > 100 µM | > 100 µM | > 100 µM | > 100 µM | > 100 µM | > 100 µM | > 100 µM | > 100 µM |  |  |  |  |  |  |  |  |  |  |
| COc1ccc2c(c1)C=C1CSCC3=Cc4cc(OC)ccc4OC13O2 | > 100 µM | > 100 µM | > 34.4 µM | > 100 µM | > 100 µM | > 100 µM | > 100 µM | > 100 µM | > 100 µM | 0.801 µM | 0.783 µM | 0.656 µM | 0.368 µM | 1.01 µM | 0.164 µM | 0.757 µM | 0.34 µM | 4.6 µM | 0.473 µM | 0.27 µM |
| COC(=O)C1=C(c2ccc(Cl)cc2)C(O)N=C(NN)N1 (stereo not drawn) | > 100 µM | > 100 µM | > 100 µM | > 100 µM | > 100 µM | > 100 µM | > 100 µM | > 100 µM | > 100 µM | > 100 µM |  |  |  |  |  |  |  |  |  |  |
| CC(C)=CCc1cc(C2COc3cc4c(c(O)c3C2=O)C=CC(C)(C)O4)c(O)cc1O (stereo not drawn) | 32.9 µM | 43.4 µM | 24.4 µM | 32.6 µM | 24.1 µM | 29.7 µM | 31.6 µM | 33.1 µM | 28.3 µM | 31.1 µM |  |  |  |  |  |  |  |  |  |  |
| CN(C)C(=S)SCC(N)=O | > 100 µM | > 100 µM | > 100 µM | > 100 µM | > 100 µM | > 100 µM | > 100 µM | > 100 µM | > 100 µM | > 100 µM |  |  |  |  |  |  |  |  |  |  |
